Row | melting point [°C] | SMILES
1 | 145 to 147 | O=C(O)CCNS(=O)(=O)c1ccc(N2CCC(c3ccccc3)CC2)cc1
2 | 138 to 140 | Cc1cccc(Nn2cnc(C)c2-c2cccc(C#N)c2)c1
3 | 126 to 129 | N#CCCc1cccc2c1N(Cc1cccc(/C=C/c3ccc4ccccc4n3)c1)CC2
4 | 141 | CCOC(=O)c1ccc(-c2ccc(OCCNC3CC3)c(-c3ccc4c(c3)C(C)(C)CCC4(C)C)c2)cc1
5 | 71.5 | CCCCCCCCCCCCCCCCOC1=C(OCCCCCCCCCCCCCCCC)c2nc3c(Br)sc(Br)c3nc21
6 | 170 | COc1ccc(Nc2ncc3ccc(=O)n(C(C)C)c3n2)cc1
7 | 141 to 148 | O=C(O)c1ccc(C(=O)OC(c2ccc3c(c2)OCO3)c2ccc3c(c2)OCO3)s1
8 | 225 to 229 | COC(=O)c1cc(Cl)c(-n2[nH]c(N)cc2=O)c(Cl)c1
9 | 149 to 152 | CCCCCCCOc1ccc(C(N)=O)cc1
10 | 211 to 212 | Cc1ccccc1NC(=O)Nc1ccc(CC(=O)ON2C(=O)CCC2=O)cc1
11 | 113 to 115 | CN(CCCCCCO)c1ccc(C=Cc2ccc(S(C)(=O)=O)cc2)cc1
12 | 138 to 139 | COc1ccc(S(=O)(=O)N2c3cc(F)ccc3-c3ccccc3C2C)cc1 (stereo not given)
13 | 92 to 94 | O=C(CCc1ccccc1)NC1CCC(=O)N2CCCC(C(=O)NC3CC(=O)OC3OCc3ccccc3)N2C1=O (stereo not given)
14 | 109 to 111 | COc1ccccc1N1CCN(CCCc2ccc(C3CCC(=O)N3)cc2)CC1 (stereo not given)
15 | 198 to 200 | CC(=O)Cc1cccc2c1C(=O)c1ccccc1C2=O
16 | 207 to 208 | CCCn1nc2c(-c3ccccc3)cccc2c1-c1ccc(O)cc1
17 | 133 | FC(F)(F)c1cccc(N=C=S)c1
18 | 129 to 130 | O=C(CS(=O)c1ccc(Cl)cc1)c1ccccc1 (stereo not given)
19 | 244 to 246 | O=C(NC1CCS(=O)(=O)CC1)NC12CC3CC(CC(C3)C1)C2
20 | 114 to 116 | CCOC(=O)C(=O)c1cn(CC)c2cc(-c3ccc(OC(F)(F)F)cc3)ccc12
21 | 153 | CCOC(=O)c1ccc(-c2cnc3c(c2)N(Cc2ccccc2OC(F)(F)F)CCN3)cc1
22 | 141 to 143 | CN1C(=O)C(C(=O)Nc2ccccn2)Sc2ccccc21 (stereo not given)
23 | 84 to 86 | CC(C(=O)O)c1ccc(CC2CCCCC2=O)cc1 (stereo not given)
24 | 144 to 146 | O=C1c2ccccc2-c2c1c1ccccc1c(=O)n2CCCCCO

Row | melting point [°C] | SMILES
25 | 221 to 222 | O=C(c1ccc2[nH]c3ccccc3c2c1)N1CCCCC1
26 | 198 to 201 | N#Cc1ccc(N=C=O)cc1Cl
27 | 72 | CC(NC(=O)C(CS)C(C)c1ccc(O)cc1)C(=O)O (stereo not given)
28 | 65 to 67 | COc1ccc2c(c1)C(C)(C)C(CO)O2 (stereo not given)
29 | 103 to 105 | FC(F)(F)Oc1ccc(C=Cc2nc(CNc3ccc(CCCCn4ccnn4)cc3)co2)cc1
30 | 166 to 167 | O=c1c2cccc3ncc(c(=O)n1CCCCCNS(=O)(=O)C(F)(F)F)n32
31 | 170 to 172 | CCC(C)(C)C(O)(C#Cc1cccnc1)c1cncnc1 (stereo not given)
32 | 205 to 206 | c1ccc2c(c1)ncc1nc(C3CCCCC3)[nH]c12
33 | 171 to 173 | CCCCC(=O)Nc1nc2ccc(Cl)cc2nc1NC(=O)CCCC
34 | 201 to 202 | CC(=O)OCc1c(Br)cnc2c(NC(=O)c3c(Cl)cccc3Cl)cccc12
35 | 46 to 47 | C=CC(=O)c1cc(OC)c(OC)c(OC)c1
36 | 220 to 221 | Nc1nc(N)c(-c2ccc(Cl)cc2Cl)c(C(F)(F)F)n1
37 | 123 to 129 | CCCN(CCCc1coc2c(OC)cccc12)C1COc2c(F)ccc(C(N)=O)c2C1 (stereo not given)
38 | 143 to 145 | COc1ccnc(N2CCN(C(=O)c3cccs3)CC2)n1
39 | 128 to 131 | CCCCCCCCCCCCCCCCOc1ccc(OCC(=O)Nc2ccccc2CO)cc1
40 | 134 to 136 | C1=Cc2ccccc2ON1
41 | 80 to 81 | CC(=O)OCc1cccc(N)c1I
42 | 81 to 82 | COC(=O)CCC(C#N)(CCC(=O)OC)c1ccc(OC)c(OC2CCCC2)c1
43 | 84 to 96 | Cc1cn(C(C)C(=O)N2CCOCC2)nc1-c1ccccc1 (stereo not given)
44 | 63 to 64 | CCCCCCCCCCCCCCCCNc1ccc(C#N)cc1
45 | > 250 | Oc1ccc2c(c1)ncn2-c1ccc2cccc(Cl)c2n1
46 | 111 to 112 | CCOC(=O)[C@@H](O)[C@@H]1OC(=O)c2c1cc(OC)c(OC)c2OC
47 | 192 to 194 | Cn1c(C(F)(F)F)cc(=O)n(-c2cc(Oc3ncccn3)c(Cl)cc2F)c1=O
48 | 102 | O=C(O)CCC(=O)N[C@@H]1CN2C(=O)N(c3cc(Cl)nc(Cl)c3)C(=O)[C@@]2(Cc2ccc(OC(F)(F)F)cc2)C1

Row | melting point [°C] | SMILES
49 | 177 to 179 | COC(=O)COCc1c(OC)ccc(OC)c1C=O
50 | 194 to 196 | COc1cc(Nc2c(C#N)cnc3cc(OCc4cccs4)c(OC)cc23)c(Cl)cc1Cl
51 | 54.3 to 55.9 | O=C(O)[C@@H]1CS[C@@H](CS)C1
52 | 50.5 to 51.5 | CCCS(=O)c1ncn(C(=O)N(CC)CC)n1 (stereo not given)
53 | 312 | O=C1NC(NCC2CC2)=N/C1=C\c1c[nH]c2ncc(F)cc12
54 | 161 to 162 | O=[N+]([O-])c1ccc(F)nc1Nc1ccc2c(c1)OCO2
55 | 277 | CCc1[nH]n(-c2c(Cl)cc(C(=O)O)cc2Cl)c2nc(Cc3ccc(OC)cc3)nc(=O)c1-2
56 | 194 to 195 | O=C(Nc1nccs1)C(CC1CCCC1)c1ccc(C(F)(F)F)c(F)c1 (stereo not given)
57 | 140 | COc1ccc(-n2c(-c3ccc([N+](=O)[O-])cc3)nnc2C(C)O)cc1 (stereo not given)
58 | 183 to 185 | CC(C)(C)C(C)(C)Nc1nc(NC(C)(C)C(C)(C)C)nc(N2CCNCC2)n1
59 | 170 to 173 | COc1cccc(S(=O)(=O)c2ccc3[nH]c(C)c(CCNC(=O)OC(C)(C)C)c3c2)c1
60 | 238 to 240 | CC(c1oc2ccccc2c(=O)c1-c1cccc(F)c1)n1nc(-c2cccc3c2oc2ccccc23)c2c(N)ncnc21 (stereo not given)
61 | 214 to 216 | Nc1ccncc1Nc1ccc2cn[nH]c2c1
62 | 58 | O=C1CNc2ncc(-c3cccnc3)cc2N1Cc1ccccc1
63 | 104 to 106 | COc1ccc2cccc(C(CNC(C)=O)COS(C)(=O)=O)c2c1 (stereo not given)
64 | 234 | Cc1ccc(N2C(=O)C(O)=C(C(=NOCC(=O)O)c3ccc(C(C)C)cc3)C2c2ccc(C(C)C)cc2)nn1 (stereo not given)
65 | 163 to 165 | CN1CCN(Cc2ccccc2C(F)(F)F)C(C2=NCCN2)C1 (stereo not given)
66 | > 300 | CCNC(=O)Cn1c(=O)c(=O)[nH]c2cc([N+](=O)[O-])c(-n3cccc3)cc21
67 | 126 to 128 | CN(C(=O)c1ccccc1)C1CCC(=O)CC1
68 | 88 to 90 | Cc1c(-c2ccccc2)c(Cl)nc2ccccc12
69 | 150 to 154 | COc1ccnc(CCc2nc3cc(-c4ccc(S(=O)(=O)N5CCN(c6ccc(C)cc6)CC5)cc4)cnc3[nH]2)c1
70 | 129 to 130 | COc1cc2c(cc1OCc1ccccc1)CCC(=O)N2Cc1cc(OC)c(OC)c(OC)c1
71 | 153 to 154 | COc1ccc(C2=NN(C3CCN(C(=O)[C@H](C)NC(=O)NC(C)(C)C)CC3)C(=O)[C@@H]3CC=CC[C@H]23)cc1OC
72 | 173 to 176 | C#Cc1cc(Nc2ncnc3cnc(NC(=O)/C=C/CN(C)C)cc23)ccc1Cl

Row | melting point [°C] | SMILES
73 | 237 to 238 | CC(=O)Nc1nc(CCc2ccc(NC(=O)OC(C)(C)C)cc2)c(C(=O)O)s1
74 | 192 to 194 | NC(=O)CNC(=O)c1cc(F)cc(-c2ccc(F)c3cc(Cc4cc(F)cc(Cl)c4)sc23)c1
75 | 151 to 155 | Cc1ccc(C(=S)c2ccccc2C(=O)O)cc1
76 | 162 | COc1cc(C(=O)O)ccc1OCCCO
77 | > 210 | Nc1nccc(-c2c[nH]c3nccc(Cl)c23)n1
78 | 51 to 52 | CN=C1SCN(C(C)(C)C)C(=O)N1C
79 | 217 to 218 | COC(=O)/C=C/c1ccc(-c2nc(NC(C)=O)sc2Cc2ccc(S(C)(=O)=O)cc2)cc1
80 | 283 to 284 | Cc1c(Cl)cccc1S(=O)(=O)Nc1ccc2c(c1)nc(C)n2C
81 | 50 to 52 | C=CCC(O)CCCCCCCCCOc1ccccc1 (stereo not given)
82 | 208 to 209 | CCOC(=O)Cn1c(=O)n(S(=O)(=O)c2ccc(Cl)cc2)c(=O)c2ccccc21
83 | 103 to 106 | Oc1cccc(OCCCCOc2cccc(O)c2)c1
84 | 124 to 127 | COc1cc2c(cc1OC)/C(=N/OCc1ccc([N+](=O)[O-])cc1)CCC2
85 | 200 to 202 | Cn1cc(C(=O)NCc2ccc(Cl)cc2)c(=O)c2cc(CN3CCOCC3)cc(C#Cc3ccncc3)c21
86 | 73.5 to 74.2 | CCc1ccc(OCC2CO2)cc1 (stereo not given)
87 | 157 to 160 | CSC1=Nc2ccc(C)cc2Cn2nnnc21
88 | 131 to 134 | O=C(c1ccc(F)cc1)C1CCN(Cc2ccc3ccccc3c2)CC1
89 | 60 to 63 | CCCSc1ncc(C(Cc2ccccc2)C(=O)O)n1Cc1ccccc1Cl (stereo not given)
90 | 145 to 146 | OCC1OC(SCC=Cc2ccccc2)C(O)C(O)C1O (stereo not given)
91 | 141 to 142 | COC(=O)C1=C(C(OC)OC)NC(C)=C(c2nc(CCl)no2)C1c1cccc([N+](=O)[O-])c1 (stereo not given)
92 | 135 to 136 | Cc1nc(-c2ccc(C(F)(F)F)cc2)oc1CSc1ccc(CC(=O)O)cc1
93 | 170 to 171 | COc1cc2c(cc1O)CCN(Cc1cc(OC)c(OC)c(OC)c1)C2
94 | 113 to 115 | C#CCN1C=CC(c2c(O)cc(C(C)C(C)CCCCC)cc2OC)CC1 (stereo not given)
95 | 206 to 210 | COc1ccccc1C=CC(=O)C(CC=Cc1ccccc1Cl)(CCC(=O)O)c1ccccc1 (stereo not given)

Row | SMILES | melting point [°C]
96 | COC(=O)[C@@H]1C[C@H](O[Si](C)(C)C)C(=O)[C@H]2[C@@]1(C)CC[C@H]1C(=O)O[C@H](c3ccoc3)C[C@]21C | 197 to 200
97 | CCN(CC)C(=O)NC1C=C2c3cccc4[nH]c(Br)c(c34)CC2N(C)C1 (stereo not given) | 204 to 208
98 | Cc1sc(C)c(CCl)c1CCl | 68 to 70
99 | O=CC1(Nc2ccccc2)CCN(CCc2ccccc2)CC1 | 83 to 84
100 | CCCN(c1c([O-])[c+](N(CCC)C2CC(C)(C)NC(C)(C)C2)[c+]1[O-])C1CC(C)(C)NC(C)(C)C1 | 198 to 199
